Source: patent US10945978B2, “Treatment and diagnosis of melanoma” (The Rockefeller University, priority 2012, dated 2021)
Counter-ions that a name gives are not always drawn.

Columns and labels:
[1] = tested on: melanoma cells (MeWo, MeWo-LM2, HT-144, SK-Mel-334.2) and endothelial cells; test: In vitro cell proliferation, viability and serum starvation assays; assay type: cell-based, human; parameters: melanoma cell or endothelial cell in vitro proliferation: dose or concentration left out as unconfirmed; conditions: for cell proliferation or cell viability rates: MeWo, HT-144, SK-Mel-334.2, 1 μM, 5 days
Protocol: To determine the effects of miR-199a or miR-1908 over-expression and combinatorial LNA-induced miRNA inhibition on cell proliferation, 2.5×10^4 cells were seeded in triplicate in 6-well plates, and viable cells were counted after 5 days. […] Viable cells were counted after 8, 24, 48, 72, and 120 hours.
The number of viable cells was counter after 8, 16, and 24 hours.
To determine the effects of GW3965, T0901317, and Bexarotene on in vitro cell growth, 2.5×10^4 melanoma cells were seeded in triplicate in 6-well plates and cultured in the presence of DMSO, GW3965, T0901317, or Bexarotene at 1 μM each. After 5 days, the number of viable and dead cells was counted using the trypan blue dye (72-57-1, Sigma-Aldrich), which selectively labels dead cells.

[2] = tested on: MeWo human melanoma cells; test: Lung metastatic colonization by MeWo cells injected i.v. into NOD Scid mice; assay type: in vivo; conditions: for reduction in lung metastatic colonization: chow 20 mg/kg starting 10 days prior to cell injection
Protocol: Melanoma cells used for in vivo metastasis assays were transduced with a stably expressed retroviral construct encoding a luciferase reporter gene (Ponomarev et al., 2004), allowing us to monitor the in vivo progression of melanoma cells by bioluminescence imaging. The following numbers of melanoma cells, resuspended in 100 μL of PBS, were injected intravenously via the tail-vein: 4×10^4 MeWo cells, 2.5×10^5 HT-144 cells, 2×10^5 SK-Mel-334.2 cells, 5×10^4B16F10 cells, and 1×10^5 YUMM cells. The MeWo, HT-144, and SK-Mel-334.2 cells were injected into 6-8 week-old sex-matched NOD scid mice, while the B16F10 and YUMM cells were injected into 6-8 week-old sex-matched C57BL/6 mice. In all experiments assessing at the effects of GW3965 on metastasis formation, mice were pre-treated on a control diet or a GW3965-supplemented diet (20 mg/kg) for 10 days. To assess the effect of GW3965 treatment on brain metastasis, 1×10^5 MeWo brain-metastatic derivatives were injected intracardially into athymic nude mice. Immediately following injection, mice were randomly assigned to a control diet or GW3965-supplemented diet (100 mg/kg). To determine whether oral delivery of GW3965 can inhibit the progression of incipient metastasis, NOD Scid mice were intravenously injected with 4×10^4 MeWo cells and the cells were allowed to colonize the lungs for 42 days, after which mice were blindedly assigned to a control diet or a GW3965-supplemented diet (100 mg/kg) treatment.

[3] = tested on: SK-Mel-2 human melanoma cells; test: Subcutaneous SK-Mel-2 tumor growth in immunocompromised mice; assay type: in vivo; conditions: oral, GW3965-supplemented diet
[4] = tested on: ApoE promoter fused to ME.1 or ME.2; test: ApoE promoter activity assay (luciferase); assay type: cell-based, human; conditions: MeWo cells; 1 μM, 24 hours
Text: The ApoE promoter, consisting of a sequence spanning 980 base pairs upstream and 93 base pairs downstream of the ApoE gene, was cloned into a pGL3-Basic vector (E1751, Promega Corporation, Madison, Wis.) upstream of the firefly luciferase gene using NheI and SacI restriction enzymes. Then, multi-enhancer elements 1 (ME. 1) and 2 (ME.2) were cloned directly upstream of the ApoE promoter using MluI and SacI restriction enzymes. To assess ApoE promoter- and ME.1/ME.2-driven transcriptional activation by LXR agonists, 5×10^4 MeWo cells were seeded into a 24-well plate. The following day, 100 ng of pGL3-ME. […] To assess transcriptional activation by LXRα or LXR(3, 5×10^4 MeWo cells expressing a control shRNA or shRNA targeting LXRα or LXRβ were seeded into a 24-well plate. The following day, 200 ng of pGL3-ME. 1/ME.2-ApoE promoter construct and 2 ng of pRL-CMV renilla luciferase were co-transfected into cells in the presence of DMSO, GW3965, or T0901317 at 1 μM, each condition in quadruplicate. After 24 hours, cells were lysed, and cell lysate was analyzed for firefly and renilla luciferase activity using the Dual Luciferase Assay System (E1960, Promega) and a Bio-Tek Synergy NEO Microplate Reader. Firefly luciferase signal was normalized to renilla luciferase signal and all data are expressed relative to the luciferase activity ratio measured in the DMSO-treated control cells.

Extracellular ApoE = test: ApoE ELISA in conditioned media; assay type: cell-based, human; conditions: MeWo cells; 1 μM, 72 hours
Protocol: Extracellular ApoE levels in serum-free conditioned media from melanoma cells treated with DMSO, GW3965, or T0901317 (1 μM each) were quantified using the ApoE ELISA kit (Innovative Research) at 72 hours following treatment.

ApoE = ApoE expression in mice fed LXR agonist diet (western blot, qRT-PCR); assay type: in vivo, mouse; conditions: 10 days; for ApoE protein expression in systemic adipose, lung, and brain tissues: chow 20 mg/kg, western blot; for ApoE transcript levels in circulating white blood cells: diet 20 mg/kg, qRT-PCR
Protocol: Mouse lung and brain tissue samples were homogenized on ice in RIPA buffer (Sigma-Aldrich) supplemented with protease inhibitors (Roche). Mouse adipose tissue was homogenized on ice in TNET buffer (1.5 mM Tris pH 7.5, 150 mM NaCl, 2 mM EDTA 1% triton, protease inhibitors). Total protein lysate (2 jag) was separated by SDS-PAGE, transferred to PVDF membrane, and blotted with an anti-mouse ApoE (ab20874, Abcam) and anti-tubulin α/β (2148, Cell Signaling) antibodies. RNA was extracted from whole cell lysates using the Total RNA Purification Kit (17200, Norgen, Thorold, Canada). 600 ng of total RNA was then reverse transcribed into cDNA using the cDNA First-Strand Synthesis Kit (18080-051, Invitrogen), and quantitative real-time PCR amplification was performed as previously described (Pencheva et al., 2012) using an ABI Prism 7900HT Real-Time PCR System (Applied Biosystems, Austin, Tex.). Each PCR reaction was carried out in quadruplicates. Gene expression was normalized to GAPDH, which was used as an endogenous control.

[5] = tested on: SK-Mel-239 vemurafenib-resistant clone cells; test: SK-Mel-239 vemurafenib-resistant tumors in NOD Scid gamma mice; assay type: in vivo, human; conditions: GW3965 diet 100 mg/kg
[6] = tested on: B16F10 mouse melanoma cells; test: Subcutaneous B16F10 tumor growth in C57BL/6 mice; conditions: for suppression of tumor growth: 20 mg/kg
Protocol: Animals were palpated weekly for tumor formation, after which sizeable tumors were measured twice a week. Tumor volume was calculated as (small diameter)^2×(large diameter)/2.

Compound	cell proliferation or cell viability rates [1]	survival times following metastatic colonization ([2]; GW3965-supplemented chow)	suppression of colonization by incipient lung metastases ([2]; GW3965 diet 100 mg/kg from d42) [fold]	number of macroscopic metastatic nodules ([2]; GW3965 diet 100 mg/kg from d42, lungs at d77)	reduction in metastatic colonization capacity ([2]; cells pre-treated with GW3965 1 μM for 48 hours)	in vivo melanoma metastasis (lung, bioluminescence) ([2]; chow containing GW3965 20 mg/kg, oral)	reduction in lung metastatic colonization ([2]; oral) [fold]	tumor growth inhibition [3] [%]	activity of luciferase reporter with ApoE promoter fused to ME.1 or ME.2 [4]	levels of secreted ApoE protein (Extracellular ApoE)	ApoE protein expression in systemic adipose, lung, and brain tissues (ApoE)	ApoE transcript levels in circulating white blood cells (ApoE)	suppression of tumor growth [5] [%]	survival of mice bearing vemurafenib-resistant melanoma burden [5]	suppression of tumor growth in mice genetically inactivated for ApoE ([6]; ApoE−/− mice, GW3965 diet 20 mg/kg, 7 days)	suppression of tumor growth ([6]; oral, from tumors of 5-10 mm3) [%]	reduction in tumor growth ([6]; oral, 100 mg/kg, from tumors of 5-10 mm3) [%]	reduction in the growth of established large tumors ([6]; tumors ~150 mm3, chow containing GW3965 150 mg/kg)	melanoma cell or endothelial cell in vitro proliferation ([1]; MeWo-LM2 cells or endothelial cells, ApoE)	survival in serum starvation conditions ([1]; MeWo-LM2 cells or endothelial cells, ApoE, 0.2% FBS)
O=C(O)Cc1cccc(OCCCN(Cc2cccc(C(F)(F)F)c2Cl)CC(c2ccccc2)c2ccccc2)c1 [GW3965 2, 3-[3-[N-(2-Chloro-3-trifluoromethylbenzyl)-(2,2-diphenylethyl)amino]propyloxy] phenylacetic acid hydrochloride]	did not affect	significantly prolonged	28	decreased	more than 50 fold	significant reduction	31	49	enhance	elevated levels	significantly elevated	upregulated	72	significantly prolonged	completely ineffective	67	80	roughly 50%	–	–
recombinant human ApoE: recombinant human ApoE3 (4696, BioVision)	–	–	–	–	–	–	–	–	–	–	–	–	–	–	–	–	–	–	did not affect	did not affect
O=S(=O)(c1ccccc1)N(CC(F)(F)F)c1ccc(C(O)(C(F)(F)F)C(F)(F)F)cc1 [T0901317 1]	did not affect	–	–	–	–	–	23	–	enhance	elevated levels	significantly elevated	upregulated	–	–	–	61	–	–	–	–
